Laboratory results from patent US20100285039A1, “B7-H1 (CD274) Antagonists Induce Apoptosis of Tumor Cells” (THE JOHNS HOPKINS UNIVERSITY, priority 2008, published 2010).

Experiments:
B7-H1/P815 cells = test: Staurosporine induced apoptosis (annexin V/PI); assay type: cell-based, mouse; details: Staurosporine (STP 1 μM), control Ig-treated cells
Method: PD-1Ig fusion protein or control IgG were coated on 96 well-plates for 18 hr at 4° C. Full length B7-H1/P815 cells were cultured with STP (1 μM) in the well coated PD-1Ig or control IgG. Cells were harvested after 24 hr and stained with annexin V (BD PharMingen) at 5 μl/test, propidium iodide (PI) (Sigma-Aldrich) at 5 μg/ml for 1 hour and monoclonal antibodies against H-2D^d. Apoptosis was calculated as the percentage of annexin V+PI-cells gated in the H-2D^d+ fractions.
B7-H1 was assayed to determine whether it confers resistance to drugs which induce apoptosis of tumor cells. […] Staurosporine is often used as a general method for inducing apoptosis of tumor cells.

[1] = biological target: wild type murine B7-H1 expressed on P815 cells (B7-H1/P815) (mouse) (UniProt Q9EP73); test: cell-based or functional assay
wild type murine B7-H1 expressed on P815 cells (B7-H1/P815) (mouse), sequence (Q9EP73 19-290): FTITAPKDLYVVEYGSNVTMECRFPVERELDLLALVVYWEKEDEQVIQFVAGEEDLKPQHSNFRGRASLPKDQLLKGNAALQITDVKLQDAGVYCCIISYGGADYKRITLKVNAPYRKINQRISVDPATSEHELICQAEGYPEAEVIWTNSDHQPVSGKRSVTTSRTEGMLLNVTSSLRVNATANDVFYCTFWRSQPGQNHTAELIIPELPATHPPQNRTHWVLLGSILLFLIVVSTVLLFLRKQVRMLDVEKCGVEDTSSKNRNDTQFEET

Row | Compound | apoptosis of B7-H1/P815 cells (B7-H1/P815 cells) | cytolytic activity of CTLs against B7-H1/P815 targets [1]
1 | CN[C@@H]1C[C@H]2O[C@@](C)([C@@H]1OC)n1c3ccccc3c3c4c(c5c6ccccc6n2c5c31)C(=O)NC4 [Staurosporine] | 74.9% | –
2 | wild type murine PD-1 expressed on transduced PD-1KO 2C CTLs (PD-1/PD-1^02C) (from UniProt Q02242 25-288) (receptor) | – | 50%
